These results are taken from patent publication US12257243B2, “5-hydroxy-7-oxabicyclo[2.2.1]heptane-2-carboxamide derivatives for inducing chondrogenesis for treating joint damage” (NOVARTIS AG, priority 2018, dated 2025).

A word on the IC50: it is the concentration needed to halve the response being measured.

The test concerns the target ALP in normal human articular chondrocytes (NHACs). In words: Alkaline Phosphatase (ALP) activity assay (staining and quantitation) in NHACs, prevention of chondrocyte hypertrophy. It is filed as cell-based. Particulars: human IL-1 beta 10 ng/mL, 12 days; for IC50: Fast Blue RR staining, high content imaging, read-out: ALP in NHAC IC50; for ALP in NHAC (% Efficacy) / Emax: value in parentheses; for Emax: read-out: ALP in NHAC (% Efficacy). The gist of the method:
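Primary human articular chondrocytes plated at 7,500 cells/well in DMEM with 10% FBS alongside test compound, incubated 5 h at 37 °C, then given IL-1β (10 ng/mL final) for 12 days. Fixed cells stained for ALP with Fast Blue RR/naphthol AS-MX, Hoechst counterstain. Read by fluorescence imaging (561 nm) and/or high-content cell scoring.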

Each structure is given as a SMILES string. Read-outs that look alike come from different tables or passages of the source.

For `Cn1nc(C(F)(F)F)cc1[C@H]1[C@H]2O[C@H](C[C@@H]2O)[C@@H]1C(=O)Nc1cc(C(F)(F)F)ccc1C#N` (single isomer, unassigned) [Example 72b, (1R,2R,3S,4R,5S)—N-(2-cyano-5-(trifluoromethyl)phenyl)-5-hydroxy-3-(1-methyl-3-(trifluoromethyl)-1H-pyrazol-5-yl)-7-oxabicyclo[2.2.1]heptane-2-carboxamide or (1S,2S,3R,4S,5R)—N-(2-cyano-5-(trifluoromethyl)phenyl)-5-hydroxy-3-(1-methyl-3-(trifluoromethyl)-1-pyrazol-5-yl)-7-oxabicyclo[2.2.1]heptane-2-carboxamide], where the note is “listed as 72?”, the IC50 was 1.8 µM and the “ALP in NHAC (% Efficacy)” value was determined as 88%.

As for `Cc1ccc(NC(=O)[C@@H]2[C@@H](c3cccc(C(F)(F)F)c3)[C@H]3O[C@@H]2C[C@@H]3O)cc1C(F)(F)F` (racemic) [Example 12, rac-(1R,2R,3S,4R,5S)-5-hydroxy-N-(4-methyl-3-trifluoromethylphenyl)-3-(3-(trifluoromethyl)phenyl)-7-oxabicyclo[2.2.1]heptane-2-carboxamide], under “Chondrocyte, 288 h”, the IC50 was 9.8 µM and the Emax was 102%.

In the case of `O=C(Nc1ccc(N2CCOCC2)c(C(F)(F)F)c1)[C@@H]1[C@@H](c2cccc(C(F)(F)F)c2)[C@H]2O[C@@H]1C[C@@H]2O` (racemic) [Example 23, rac-(1R,2R,3S,4R,5S)-5-hydroxy-N-(4-morpholino-3-(trifluoromethyl)phenyl)-3-(3-(trifluoromethyl)phenyl)-7-oxabicyclo[2.2.1]heptane-2-carboxamide], for the setting “Chondrocyte, 288 h”, the concentration for half-maximal inhibition (IC50) was 17 µM and the Emax was found to be 108%.

On to `O=C(Nc1ccc(C(F)(F)F)c(F)c1)[C@@H]1[C@@H](c2cccc(C(F)(F)F)c2)[C@H]2O[C@@H]1C[C@@H]2O` (racemic) [Example 3, rac-(1R,2R,3S,4R,5S)—N-(3-fluoro-4-(trifluoromethyl)phenyl)-5-hydroxy-3-(3-(trifluoromethyl)phenyl)-7-oxabicyclo[2.2.1]heptane-2-carboxamide], for which, for the setting “Chondrocyte, 288 h”, the half-maximal inhibitory concentration (IC50) worked out at 12 µM and the Emax was 77%.

Regarding `Cn1cc([C@H]2[C@H]3O[C@H](C[C@@H]3O)[C@@H]2C(=O)Nc2cc(C(F)(F)F)cc(Cl)n2)c(C(F)(F)F)n1` (racemic) [Example 35, rac-(1R,2R,3S,4R,5S)—N-(6-chloro-4-(trifluoromethyl)pyridin-2-yl)-5-hydroxy-3-(1-methyl-3-(trifluoromethyl)-1H-pyrazol-4-yl)-7-oxabicyclo[2.2.1]heptane-2-carboxamide], where the note is “Chondrocyte, 288 h”, the IC50 turned out to be 9.8 µM and the Emax came out at 83%.

In the case of `O=C(Nc1ccc(C(F)(F)F)cn1)[C@@H]1[C@@H](c2cccc(C(F)(F)F)c2)[C@H]2O[C@@H]1C[C@@H]2O` (racemic) [Example 26, rac-(1R,2R,3S,4R,5S)-5-hydroxy-3-(3-(trifluoromethyl)phenyl)-N-(5-(trifluoromethyl)pyridin-2-yl-7-oxabicyclo[2.2.1]heptane-2-carboxamide], under “Chondrocyte, 288 h”, the IC50 came out at 11 µM and the Emax came to 112%.

Turning to `COc1cc([C@H]2[C@H]3O[C@H](C[C@@H]3O)[C@@H]2C(=O)Nc2cc(C(F)(F)F)ccn2)ccn1` (racemic) [Example 77, rac-(1R,2R,3S,4R,5)-5-hydroxy-3-(2-methoxypyridin-4-yl)-N-(4-(trifluoromethyl)pyridin-2-yl)-7-oxabicyclo[2.2.1]heptane-2-carboxamide], for the setting “Chondrocyte, 288 h”, the half-inhibitory concentration (IC50) came to 15 µM and the Emax turned out to be 76%.

For the molecule `Cc1c(NC(=O)[C@@H]2[C@@H](c3cccc(C(F)(F)F)c3)[C@H]3O[C@@H]2C[C@@H]3O)cccc1C(F)(F)F` (racemic) [Example 11, rac-(1R,2R,3S,4R,5S)-5-hydroxy-N-(2-methyl-3-(trifluoromethyl)phenyl)-3-(3-(trifluoromethyl)phenyl)-7-oxabicyclo[2.2.1]heptane-2-carboxamide], for the setting “Chondrocyte, 288 h”, the IC50 was > 30 µM and the Emax came out at 33%.

For `Cc1ccc(NC(=O)[C@@H]2[C@@H](c3cc(C(F)(F)F)nn3C)[C@H]3O[C@@H]2C[C@@H]3O)cc1C(F)(F)F` (racemic) [Example 60, rac-(1R,2R,3S,4R,5S)-5-hydroxy-3-(1-methyl-3-(trifluoromethyl)-1H-pyrazol-5-yl)-N-(4-methyl-3-(trifluoromethyl)phenyl)-7-oxabicyclo[2.2.1]heptane-2-carboxamide], where the note is “Chondrocyte, 288 h”, the half-inhibitory concentration (IC50) came out at 13 µM and the Emax worked out at 81%.

For the molecule `COc1cc([C@@H]2[C@@H]3O[C@@H](C[C@H]3O)[C@H]2C(=O)Nc2cc(C(F)(F)F)ccc2C#N)ccn1` (single isomer, unassigned) [Example 78b, (1R,2R,3S,4R,5)-N-(2-cyano-5-(trifluoromethyl)phenyl)-5-hydroxy-3-(2-methoxypyridin-4-yl)-7-oxabicyclo[2.2.1]heptane-2-carboxamide or (1S,2S,3R,4S,5R)—N-(2-cyano-5-(trifluoromethyl)phenyl)-5-hydroxy-3-(2-methoxypyridin-4-yl)-7-oxabicyclo[2.2.1]heptane-2-carboxamide], the IC50 is 1.4 µM and the “ALP in NHAC (% Efficacy)” value came to 88%.

For `Cn1cc([C@H]2[C@H]3O[C@H](C[C@@H]3O)[C@@H]2C(=O)Nc2cccc(C(F)(F)F)c2)c(C(F)(F)F)n1` (single isomer, unassigned) [Example 32a, (1R,2R,3S,4R,5S)-5-hydroxy-3-(1-methyl-3-(trifluoromethyl)-1H-pyrazol-4-yl)-N-(3-(trifluoromethyl)phenyl)-7-oxabicyclo[2.2.1]heptane-2-carboxamide or (1S,2S,3R,4S,5R)-5-hydroxy-3-(1-methyl-3-(trifluoromethyl)-1H-pyrazol-4-yl)-N-(3-(trifluoromethyl)phenyl)-7-oxabicyclo[2.2.1]heptane-2-carboxamide], the IC50 worked out at 6.6 µM and the “ALP in NHAC (% Efficacy)” value was 87%.

`COc1ccc(C(F)(F)F)cc1NC(=O)[C@H]1[C@H](c2cn(C)nc2C(F)(F)F)[C@@H]2O[C@H]1C[C@H]2O` (single isomer, unassigned) [Example 33a, (1R,2R,3S,4R,5S)-5-hydroxy-N-(2-methoxy-5-trifluoromethyl)phenyl)-3-(1-methyl-3-(trifluoromethyl)-1H-pyrazol-4-L)-7-oxabicyclo[2.2.1]heptane-2-carboxamide or (1S,2S,3R,4S,5R)-5-hydroxy-N-(2-methoxy-5-(trifluoromethyl)phenyl)-3-(1-methyl-3-(trifluoromethyl)-1H-pyrazol-4-L)-7-oxabicyclo[2.2.1]heptane-2-carboxamide]: the IC50 worked out at 6.6 µM and the “ALP in NHAC (% Efficacy)” value was 79%.

Consider `COc1ccc(C(F)(F)F)cc1NC(=O)[C@H]1[C@H](c2cn(C)nc2C(F)(F)F)[C@@H]2O[C@H]1C[C@H]2O` (single isomer, unassigned) [Example 33b, (1R,2R,3S,4R,5S)-5-hydroxy-N-(2-methoxy-5-trifluoromethyl)phenyl)-3-(1-methyl-3-(trifluoromethyl)-1H-pyrazol-4-L)-7-oxabicyclo[2.2.1]heptane-2-carboxamide or (1S,2S,3R,4S,5R)-5-hydroxy-N-(2-methoxy-5-(trifluoromethyl)phenyl)-3-(1-methyl-3-(trifluoromethyl)-1H-pyrazol-4-L)-7-oxabicyclo[2.2.1]heptane-2-carboxamide], for which the concentration for half-maximal inhibition (IC50) was found to be 3.1 µM and the “ALP in NHAC (% Efficacy)” value was 99%.
